Results taken from ChEMBL document CHEMBL5137015, “Design, synthesis, and evaluation of a novel series of mono-indolylbenzoquinones derivatives for the potential treatment of breast cancer” (Eur J Med Chem, 2022).
pIC50: −log10 of the molar value. Calls of active or inactive are those of the source. No cut-off for these calls is given here.

Key:
[1] = tested on: MDA-MB-231; assay: Induction of apoptosis in human MDA-MB-231 cells assessed as increase in Bcl-2 protein expression at 1 uM incubated for 24 hrs by Western blot analysis; type: functional, cell-based
[2] = tested on: MDA-MB-231; assay: Induction of apoptosis in human MDA-MB-231 cells assessed as increase in Bax expression at 0.5 to 3 times of IC50 concentration by Western blot analysis; type: functional, cell-based
[3] = Toxicity in Balb/c mouse implanted with mouse 4T1 cells assessed as kidney lesions at 50 mg/kg administered intratumorally every four days for 14 days in the presence of liquid cyanoacrylate by H&E staining based histopathological analysis; type: organism-based; details: in vivo, other, 336 h, route it(Intratumoral), time 14 day
[4] = tested on: 4T1; assay: Antitumor activity against mouse 4T1 cells xenografted in Balb/c mouse assessed as tumor growth inhibition at 200 mg/kg administered topically over the tumor surface every two days for 14 days in the presence of cyanoacrylate relative to control; type: functional; details: 4T1, 336 h, route top, time 14 day, read-out: TGI
[5] = tested on: MDA-MB-231; assay: Induction of apoptosis in human MDA-MB-231 cells assessed as increase in caspase 3 expression at 0.5 to 3 times of IC50 concentration by Western blot analysis; type: functional, cell-based
[6] = Drug metabolism in Balb/c mouse kidney implanted with mouse 4T1 cells assessed as dechlorination of parent compound causing metabolite formation by LC-MS analysis; type: ADME, tissue-based
[7] = tested on: 4T1; assay: Antitumor activity against mouse 4T1 cells implanted in Balb/c mouse assessed as apoptotic rate of dissected tumor cell at 50 mg/kg administered intratumorally every four days for 14 days in the presence of liquid cyanoacrylate by flow cytometric analysis (reference value: 64.83%); type: functional; details: route it(Intratumoral), time 14 day
[8] = tested on: 4T1; assay: Antitumor activity against mouse 4T1 cells implanted in Balb/c mouse assessed as TUNEL positive cells at 50 mg/kg administered intratumorally every four days for 14 days by TUNEL staining analysis (reference value: 6.55%); type: functional; details: route it(Intratumoral), time 14 day
[9] = tested on: 4T1; assay: Antitumor activity against mouse 4T1 cells implanted in Balb/c mouse assessed as nuclei disappearance at 50 mg/kg administered intratumorally every four days for 14 days in the presence of liquid cyanoacrylate; type: functional, organism-based; details: route it(Intratumoral), time 14.0 day
[10] = tested on: 4T1; assay: Antitumor activity against mouse 4T1 cells xenografted in Balb/c mouse assessed as TUNEL positive cells at 200 mg/kg administered topically over the tumor surface every two days for 14 days in the presence of cyanoacrylate by TUNEL staining analysis (reference value: 21.78%); type: functional; details: route top, time 14 day
[11] = tested on: MDA-MB-231; assay: Induction of apoptosis in human MDA-MB-231 cells assessed as increase in cytoplasmic vacuoles at 1 uM incubated for 24 hrs by transmission electron microscopic analysis; type: functional, cell-based
[12] = Acute toxicity in mouse assessed as death rate ratio at 238 mg/kg, ip measured over 14 days; type: organism-based; details: in vivo, 336 h, time 14 day
[13] = tested on: MDA-MB-231; assay: Induction of apoptosis in human MDA-MB-231 cells assessed as increase in p53 level at 100 nM incubated for 48 hrs; type: functional, cell-based
[14] = tested on: MDA-MB-231; assay: Antiproliferative activity against human MDA-MB-231 cells assessed as inhibition of cell growth by MTT assay; type: functional, cell-based
[15] = Drug metabolism in Balb/c mouse spleen implanted with mouse 4T1 cells assessed as dechlorination of parent compound causing metabolite formation by LC-MS analysis; type: ADME, tissue-based
[16] = Toxicity in Balb/c mouse implanted with mouse 4T1 cells assessed as heart lesions at 50 mg/kg administered intratumorally every four days for 14 days by H&E staining based histopathological analysis; type: organism-based; details: in vivo, other, 336 h, route it(Intratumoral), time 14 day
[17] = tested on: MDA-MB-231; assay: Induction of apoptosis in human MDA-MB-231 cells assessed as increase in cytochrome C expression at 1 uM incubated for 24 hrs by Western blot analysis; type: functional, cell-based
[18] = Toxicity in Balb/c mouse implanted with mouse 4T1 cells assessed as lung lesions at 50 mg/kg administered intratumorally every four days for 14 days by H&E staining based histopathological analysis; type: organism-based; details: in vivo, other, 336 h, route it(Intratumoral), time 14 day
[19] = Toxicity in Balb/c mouse xenografted with mouse 4T1 cells assessed as lung lesions at 200 mg/kg administered topically over the tumor surface every two days for 14 days in the presence of cyanoacrylate by H&E staining based histopathological analysis; type: organism-based; details: in vivo, topical_or_ocular, 336 h, route top, time 14 day
[20] = tested on: MDA-MB-231; assay: Induction of apoptosis in human MDA-MB-231 cells assessed as change in membrane osmotic transport capacity; type: functional, cell-based
[21] = Acute toxicity in mouse assessed as death rate ratio at 476 mg/kg, ip measured over 14 days; type: organism-based; details: in vivo, 336 h, time 14 day
[22] = tested on: 4T1; assay: Antitumor activity against mouse 4T1 cells xenografted in Balb/c mouse assessed as disordered nuclei at 200 mg/kg administered topically over the tumor surface every two days for 14 days in the presence of cyanoacrylate; type: functional, organism-based; details: route top, time 14.0 day
[23] = tested on: 4T1; assay: Antitumor activity aginst mouse 4T1 cells implanted in Balb/c mouse assessed as nuclei disappearance at 50 mg/kg, ip administered every two days for 14 days; type: functional, organism-based; details: time 14.0 day
[24] = tested on: MDA-MB-231; assay: Induction of apoptosis in human MDA-MB-231 cells assessed as increase in p53 protein expression at 1 uM incubated for 24 hrs by Western blot analysis; type: functional, cell-based
[25] = Acute toxicity in mouse assessed as animal death at 5000 mg/kg, po; type: organism-based; details: in vivo
[26] = tested on: MDA-MB-231; assay: Induction of apoptosis in human MDA-MB-231 cells assessed as reduction in cell volume at 1 uM incubated for 24 hrs by transmission electron microscopic analysis; type: functional, cell-based
[27] = tested on: MDA-MB-231; assay: Induction of ROS production in human MDA-MB-231 cells assessed as increase in fluorescence intensity at 1 uM incubated for 24 hrs by DCFH-DA staining based fluorescence analysis; type: functional, cell-based
[28] = Drug metabolism in Balb/c mouse kidney implanted with mouse 4T1 cells assessed as 2-methyl hydroxylation of parent compound causing metabolite formation by LC-MS analysis; type: ADME, tissue-based
[29] = Acute toxicity in mouse assessed as death rate ratio at 300 mg/kg, ip measured over 14 days; type: organism-based; details: in vivo, 336 h, time 14 day
[30] = Toxicity in Balb/c mouse implanted with mouse 4T1 cells assessed as spleen lesions at 50 mg/kg, ip administered every two days for 14 days by H&E staining based histopathological analysis; type: organism-based; details: in vivo, 336 h, time 14 day
[31] = tested on: MDA-MB-231; assay: Induction of apoptosis in human MDA-MB-231 cells assessed as late apoptotic cells by measuring red fluorescence at 0.01 to 1 uM by PI staining based fluorescence microscopic analysis; type: functional, cell-based; details: dose 0.01-1 µM
[32] = tested on: 4T1; assay: Antitumor activity against mouse 4T1 cells xenografted in Balb/c mouse assessed as tumor growth inhibition at 50 mg/kg, ip administered every two days for 14 days; type: functional; set-up: scale not given: the % may be the effect or the level left; details: time 14 day
[33] = tested on: MDA-MB-231; assay: Induction of apoptosis in human MDA-MB-231 cells assessed as increase in pro-caspase 3 level at 100 nM incubated for 48 hrs; type: functional, cell-based
[34] = Acute toxicity in mouse assessed as death rate ratio at 378 mg/kg, ip measured over 14 days; type: organism-based; details: in vivo, 336 h, time 14 day
[35] = Toxicity in Balb/c mouse xenografted with mouse 4T1 cells assessed as liver lesions at 200 mg/kg administered topically over the tumor surface every two days for 14 days in the presence of cyanoacrylate by H&E staining based histopathological analysis; type: organism-based; details: in vivo, topical_or_ocular, 336 h, route top, time 14 day
[36] = Toxicity in Balb/c mouse implanted with mouse 4T1 cells assessed as kidney lesions at 50 mg/kg administered intratumorally every four days for 14 days by H&E staining based histopathological analysis; type: organism-based; details: in vivo, other, 336 h, route it(Intratumoral), time 14 day

SMILES: Cc1[nH]c2ccccc2c1C1=C(Cl)C(=O)C(Cl)=C(N2CCOCC2)C1=O
- Activity [1]: Active
- Activity [2]: Active
- Activity [3]: Non-Toxic
- inhibition in vivo at 200 mg/kg [4]: 38%
- Activity [5]: Active
- Drug metabolism [6]: Metabolite_Detected
- Activity [7]: 76.24%
- Activity [8]: 91.48%
- Activity [9]: Active
- Activity [10]: 64.71%
- Activity [11]: Active
- Ratio [12]: 0.17
- Activity [13]: Active
- pIC50 [14]: 7.15
- Drug metabolism [15]: Metabolite_Detected
- Activity [16]: Non-Toxic
- Activity [17]: Active
- Activity [18]: Non-Toxic
- Activity [19]: Non-Toxic
- Activity [20]: Active
- Ratio [21]: 0.66
- Activity [22]: Active
- Activity [23]: Active
- Activity [24]: Active
- Activity [25]: Non-Toxic
- Activity [26]: Active
- Activity [27]: Active
- Drug metabolism [28]: Metabolite_Detected
- Ratio [29]: 0.33
- Activity [30]: Non-Toxic
- Activity [31]: Active
- Activity [32]: 36%
- Activity [33]: Active
- Ratio [34]: 0.5
- Activity [35]: Non-Toxic
- Activity [36]: Non-Toxic
